Results taken from patent US20230265116A1, “DEGRADATION OF (EGFR) BY CONJUGATION OF EGFR INHIBITORS WITH E3 LIGASE LIGAND AND METHODS OF USE” (BEIGENE, LTD., priority 2020, published 2023).

Columns and labels:
[1] = target: T1, EGFR L858R/T790M/C797S (BaF3-LTC cells) (Homo sapiens, UniProt P00533, C797S/L858R/T790M); assay: EGFR degradation HTRF assay, BaF3-LTC cells; assay type: cell-based; settings: BaF3-LTC, 16h treatment; for Dmax: maximum percentage of degradation, read-out: LTC Dmax (%); for DC50: read-out: LTC DC50
T1 construct: expressed in transfected cells; host or cells: BaF3
T1 sequence (P00533 25-1210 T790M/C797S/L858R): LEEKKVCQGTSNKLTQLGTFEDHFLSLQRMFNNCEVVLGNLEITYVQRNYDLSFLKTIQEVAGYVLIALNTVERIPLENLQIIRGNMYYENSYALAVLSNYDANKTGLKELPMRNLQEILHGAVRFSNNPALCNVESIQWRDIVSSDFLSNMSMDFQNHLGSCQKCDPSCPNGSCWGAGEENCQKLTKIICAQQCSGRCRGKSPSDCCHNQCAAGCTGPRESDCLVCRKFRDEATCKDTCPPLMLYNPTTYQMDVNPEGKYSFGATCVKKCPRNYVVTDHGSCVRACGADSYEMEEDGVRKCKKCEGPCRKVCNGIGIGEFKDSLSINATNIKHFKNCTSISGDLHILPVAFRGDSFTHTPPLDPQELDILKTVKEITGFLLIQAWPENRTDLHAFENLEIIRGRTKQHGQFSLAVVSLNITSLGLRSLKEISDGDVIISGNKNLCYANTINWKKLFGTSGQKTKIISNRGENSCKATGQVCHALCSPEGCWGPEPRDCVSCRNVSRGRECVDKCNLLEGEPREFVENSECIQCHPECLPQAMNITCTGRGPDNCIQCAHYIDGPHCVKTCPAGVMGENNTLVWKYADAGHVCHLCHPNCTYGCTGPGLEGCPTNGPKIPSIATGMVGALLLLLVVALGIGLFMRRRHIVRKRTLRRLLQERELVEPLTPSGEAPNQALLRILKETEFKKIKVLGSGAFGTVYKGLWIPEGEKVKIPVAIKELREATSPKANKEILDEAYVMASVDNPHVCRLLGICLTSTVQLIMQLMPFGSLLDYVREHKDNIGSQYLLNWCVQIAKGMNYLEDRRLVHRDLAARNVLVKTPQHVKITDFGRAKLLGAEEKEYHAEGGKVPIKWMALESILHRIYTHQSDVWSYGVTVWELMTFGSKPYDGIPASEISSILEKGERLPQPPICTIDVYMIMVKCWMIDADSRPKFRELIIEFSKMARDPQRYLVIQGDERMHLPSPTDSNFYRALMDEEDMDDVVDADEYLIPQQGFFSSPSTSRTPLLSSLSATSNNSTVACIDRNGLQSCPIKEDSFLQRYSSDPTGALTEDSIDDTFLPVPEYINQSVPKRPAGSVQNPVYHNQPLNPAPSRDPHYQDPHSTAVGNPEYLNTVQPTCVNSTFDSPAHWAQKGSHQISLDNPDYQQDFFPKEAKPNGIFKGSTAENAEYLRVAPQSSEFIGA
Outline: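 EGFR remaining after a 16 h, 37 °C exposure (8 doses, 5-fold steps from 10 uM final, 0.2% DMSO) was quantified by HTRF antibodies in cell lysate. Percent inhibition relative to DMSO control was fitted by four-parameter logistic to give DC50; Dmax denotes maximal degradation.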

[2] = system: EGFR Del19/T790M/C797S (BaF3-DTC cells); assay: EGFR degradation HTRF assay, BaF3-DTC cells; assay type: cell-based; settings: 16h treatment; for DTC Dmax (%): maximum percentage of degradation; for DC50: read-out: DTC DC50
Outline: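 BaF3 (WT, Del19/T790M/C797S) and HCC827 cells exposed 16 h at 37 °C, 5% CO2 to compounds in 0.2% DMSO medium, 8 doses from 10 uM top, 5-fold steps. Lysates read by HTRF (665/620 nm); degradation % vs DMSO control, DC50 from four-parameter fit, Dmax as maximal degradation.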

Dmax [1] [%] | DC50 [1] [nM] | DC50 [2] [nM] | SMILES | DTC Dmax (%) [2] [%]
66.9 | 31.4 | 26.6 | CCc1cc(Nc2ncc(Br)c(Nc3ccc4nccnc4c3P(C)(C)=O)n2)c(OC)cc1N1CCC(N2CCN(CC3CN(c4cccc(C5CCC(=O)NC5=O)c4)C3)CC2)CC1 (stereo not drawn) [Example 226, 3-(3-(3-((4-(1-(4-((5-bromo-4-((5-(dimethylphosphoryl)quinoxalin-6-yl)amino)pyrimidin-2-yl)amino)-2-ethyl-5-methoxyphenyl)piperidin-4-yl)piperazin-1-yl)methyl)azetidin-1-yl)phenyl)piperidine-2,6-dione] | 77.91
82 | 12.9 | 4.27 | CCc1cc(Nc2ncc(Br)c(Nc3ccc4nccnc4c3P(C)(C)=O)n2)c(OC)cc1N1CCC(N2CCN(C(=O)C3CN(c4ccc5nn(C6CCC(=O)NC6=O)cc5c4)C3)CC2)CC1 (stereo not drawn) [Example 315, 3-(5-(3-(4-(1-(4-((5-bromo-4-((5-(dimethylphosphoryl)quinoxalin-6-yl)amino)pyrimidin-2-yl)amino)-2-ethyl-5-methoxyphenyl)piperidin-4-yl)piperazine-1-carbonyl)azetidin-1-yl)-2H-indazol-2-yl)piperidine-2,6-dione] | 89.47
82.2 | 102 | 9.2 | CCc1cc(Nc2ncc(Br)c(Nc3ccc4nccnc4c3P(C)(C)=O)n2)c(OC)cc1N1CCC(N2CCN(CCc3ccc(C4CCC(=O)NC4=O)cc3F)CC2)CC1 (stereo not drawn) [Example 6, 3-(4-(2-(4-(1-(4-((5-bromo-4-((5-(dimethylphosphoryl)quinoxalin-6-yl)amino)pyrimidin-2-yl)amino)-2-ethyl-5-methoxyphenyl)piperidin-4-yl)piperazin-1-yl)ethyl)-3-fluorophenyl)piperidine-2,6-dione] | 81.2
91 | 12.4 | 2.7 | CCc1cc(Nc2ncc(Br)c(Nc3ccc4c(=O)n(C)ncc4c3P(C)(C)=O)n2)c(OC)cc1N1CCC(N2CCN(CCc3cc(F)c(C4CCC(=O)NC4=O)c(F)c3)CC2)CC1 (stereo not drawn) [Example 431, 3-(4-(2-(4-(1-(4-((5-bromo-4-((5-(dimethylphosphoryl)-2-methyl-1-oxo-1,2-dihydrophthalazin-6-yl)amino)pyrimidin-2-yl)amino)-2-ethyl-5-methoxyphenyl)piperidin-4-yl)piperazin-1-yl)ethyl)-2,6-difluorophenyl)piperidine-2,6-dione] | 97.96
87.8 | 20 | 6.81 | CCc1cc(Nc2ncc(C(C)=O)c(Nc3ccc4nccnc4c3P(C)(C)=O)n2)c(OC)cc1N1CCC(N2CCN(CCC3CCN(c4cc(F)c(C5CCC(=O)NC5=O)c(F)c4)CC3)CC2)CC1 (stereo not drawn) [Example 703, 3-(4-(4-(2-(4-(1-(4-((5-acetyl-4-((5-(dimethylphosphoryl)quinoxalin-6-yl)amino)pyrimidin-2-yl)amino)-2-ethyl-5-methoxyphenyl)piperidin-4-yl)piperazin-1-yl)ethyl)piperidin-1-yl)-2,6-difluorophenyl)piperidine-2,6-dione] | 93.35
81.7 | 12.1 | 5.67 | COc1cc(N2CCN(C3CN(C(=O)c4cnc(C(=O)Nc5ccc(C6CCC(=O)NC6=O)cc5)cn4)C3)CC2)c(C)cc1Nc1ncc(Br)c(Nc2ccc3nccnc3c2P(C)(C)=O)n1 (stereo not drawn) [Example 723, 5-(3-(4-(4-((5-bromo-4-((5-(dimethylphosphoryl)quinoxalin-6-yl)amino)pyrimidin-2-yl)amino)-5-methoxy-2-methylphenyl)piperazin-1-yl)azetidine-1-carbonyl)-N-(4-(2,6-dioxopiperidin-3-yl)phenyl)pyrazine-2-carboxamide] | 76.49
92.1 | 5.79 | 3.29 | CCc1cc(Nc2ncc(Br)c(Nc3ccc4nc(C)c(C)cc4c3P(C)(C)=O)n2)c(OC)cc1N1CCC(N2CCN(CCc3cc(F)c(C4CCC(=O)NC4=O)c(F)c3)CC2)CC1 (stereo not drawn) [Example 707, 3-(4-(2-(4-(1-(4-((5-bromo-4-((5-(dimethylphosphoryl)-2,3-dimethylquinolin-6-yl)amino)pyrimidin-2-yl)amino)-2-ethyl-5-methoxyphenyl)piperidin-4-yl)piperazin-1-yl)ethyl)-2,6-difluorophenyl)piperidine-2,6-dione] | 82.86
92.7 | 9.87 | 2.23 | CCc1cc(Nc2ncc(Br)c(Nc3ccc4ncn(C)c(=O)c4c3P(C)(C)=O)n2)c(OC)cc1N1CCC(N2CCN(C(=O)C3CCN(c4cc(F)c(C5CCC(=O)NC5=O)c(F)c4)C3)CC2)CC1 (stereo not drawn) [Example 701, 3-(4-(3-(4-(1-(4-((5-bromo-4-((5-(dimethylphosphoryl)-3-methyl-4-oxo-3,4-dihydroquinazolin-6-yl)amino)pyrimidin-2-yl)amino)-2-ethyl-5-methoxyphenyl)piperidin-4-yl)piperazine-1-carbonyl)pyrrolidin-1-yl)-2,6-difluorophenyl)piperidine-2,6-dione] | 90.24
73.8 | 24.8 | 11.1 | CCc1cc(Nc2ncc(Br)c(Nc3ccc4nccnc4c3P(C)(C)=O)n2)c(OC)cc1N1CCC(N2CCN(C3CN(c4ccc(C5CCC(=O)NC5=O)cc4)C3)CC2)CC1 (stereo not drawn) [Example 250] | 75.19
86.3 | 19.8 | 7.09 | CCc1cc(Nc2ncc(Br)c(Nc3ccc4nccnc4c3P(C)(C)=O)n2)c(OC)cc1N1CCC(N2CCN(CC3CN(c4cc(F)c(C5CCC(=O)NC5=O)c(F)c4)C3)CC2)CC1 (stereo not drawn) [Example 253, 3-(4-(3-((4-(1-(4-((5-bromo-4-((5-(dimethylphosphoryl)quinoxalin-6-yl)amino)pyrimidin-2-yl)amino)-2-ethyl-5-methoxyphenyl)piperidin-4-yl)piperazin-1-yl)methyl)azetidin-1-yl)-2,6-difluorophenyl)piperidine-2,6-dione] | 94.79
87.4 | 77.1 | 43.3 | CCc1cc(Nc2ncc(Br)c(Nc3ccc4nccnc4c3P(C)(C)=O)n2)c(OC)cc1N1CCC(N2CCN(C[C@H]3C[C@H](N(C)c4cccc(C5CCC(=O)NC5=O)c4)C3)CC2)CC1 (stereo partly drawn) [Example 307, 3-(3-(((1r,3r)-3-((4-(1-(4-((5-bromo-4-((5-(dimethylphosphoryl)quinoxalin-6-yl)amino)pyrimidin-2-yl)amino)-2-ethyl-5-methoxyphenyl)piperidin-4-yl)piperazin-1-yl)methyl)cyclobutyl)(methyl)amino)phenyl)piperidine-2,6-dione] | 73.68
87.7 | 5.95 | 3.83 | CCc1cc(Nc2ncc(Br)c(Nc3ccc4nccnc4c3P(C)(C)=O)n2)c(OC)cc1N1CCC(N2CCN(C(=O)[C@H]3CCN(c4ccc5c(c4)CN(C4CCC(=O)NC4=O)C5=O)C3)CC2)CC1 (stereo partly drawn) [Example 240, 3-(5-((S)-3-(4-(1-(4-((5-bromo-4-((5-(dimethylphosphoryl)quinoxalin-6-yl)amino)pyrimidin-2-yl)amino)-2-ethyl-5-methoxyphenyl)piperidin-4-yl)piperazine-1-carbonyl)pyrrolidin-1-yl)-1-oxoisoindolin-2-yl)piperidine-2,6-dione] | 89.2
